Test results published in ChEMBL document CHEMBL3045466, “Novel 2H-[1,2,4]thiadiazolo[2,3-a]pyrimidine derivatives bearing chiral S()-2-(4-chlorophenyl)-3-methylbutyric acid moiety: Design, synthesis and herbicidal activity” (2010).

Experiments:
Type in all cases: functional
Details in all cases: 144 h, read-out: GI
Digitaria sanguinalis [1] = test: Herbicidal activity against Digitaria sanguinalis (hairy crabgrass) assessed as inhibition of root growth at 50 ppm after 6 days by flat-utensil method relative to control
Echinochloa crus-galli [2] = test: Herbicidal activity against Echinochloa crus-galli (barnyard grass) assessed as inhibition of stalk growth at 50 ppm after 6 days by flat-utensil method relative to control
Echinochloa crus-galli [3] = test: Herbicidal activity against Echinochloa crus-galli (barnyard grass) assessed as inhibition of stalk growth at 100 ppm after 6 days by flat-utensil method relative to control
Digitaria sanguinalis [4] = test: Herbicidal activity against Digitaria sanguinalis (hairy crabgrass) assessed as inhibition of root growth at 100 ppm after 6 days by flat-utensil method relative to control
Amaranthus retroflexus [5] = test: Herbicidal activity against Amaranthus retroflexus assessed as inhibition of root growth at 50 ppm after 6 days by flat-utensil method relative to control
Echinochloa crus-galli [6] = test: Herbicidal activity against Echinochloa crus-galli (barnyard grass) assessed as inhibition of root growth at 100 ppm after 6 days by flat-utensil method relative to control
Chenopodium ficifolium [7] = test: Herbicidal activity against Chenopodium ficifolium assessed as inhibition of root growth at 100 ppm after 6 days by flat-utensil method relative to control
Amaranthus retroflexus [8] = test: Herbicidal activity against Amaranthus retroflexus assessed as inhibition of stalk growth at 100 ppm after 6 days by flat-utensil method relative to control
Sorghum bicolor [9] = test: Herbicidal activity against Sorghum bicolor assessed as inhibition of root growth at 50 ppm after 6 days by flat-utensil method relative to control
Chenopodium ficifolium [10] = test: Herbicidal activity against Chenopodium ficifolium assessed as inhibition of root growth at 50 ppm after 6 days by flat-utensil method relative to control
Echinochloa crus-galli [11] = test: Herbicidal activity against Echinochloa crus-galli (barnyard grass) assessed as inhibition of root growth at 50 ppm after 6 days by flat-utensil method relative to control
Amaranthus retroflexus [12] = test: Herbicidal activity against Amaranthus retroflexus assessed as inhibition of stalk growth at 50 ppm after 6 days by flat-utensil method relative to control
Digitaria sanguinalis [13] = test: Herbicidal activity against Digitaria sanguinalis (hairy crabgrass) assessed as inhibition of stalk growth at 50 ppm after 6 days by flat-utensil method relative to control
Sorghum bicolor [14] = test: Herbicidal activity against Sorghum bicolor assessed as inhibition of stalk growth at 50 ppm after 6 days by flat-utensil method relative to control
Chenopodium ficifolium [15] = test: Herbicidal activity against Chenopodium ficifolium assessed as inhibition of stalk growth at 100 ppm after 6 days by flat-utensil method relative to control
Chenopodium ficifolium [16] = test: Herbicidal activity against Chenopodium ficifolium assessed as inhibition of stalk growth at 50 ppm after 6 days by flat-utensil method relative to control
Amaranthus retroflexus [17] = test: Herbicidal activity against Amaranthus retroflexus assessed as inhibition of root growth at 100 ppm after 6 days by flat-utensil method relative to control
Sorghum bicolor [18] = test: Herbicidal activity against Sorghum bicolor assessed as inhibition of root growth at 100 ppm after 6 days by flat-utensil method relative to control
Digitaria sanguinalis [19] = test: Herbicidal activity against Digitaria sanguinalis (hairy crabgrass) assessed as inhibition of stalk growth at 100 ppm after 6 days by flat-utensil method relative to control
Sorghum bicolor [20] = test: Herbicidal activity against Sorghum bicolor assessed as inhibition of stalk growth at 100 ppm after 6 days by flat-utensil method relative to control

Row | Compound | inhibition of growth at 50 ppm (Digitaria sanguinalis [1]) | inhibition of growth at 50 ppm (Echinochloa crus-galli [2]) | inhibition of growth at 100 ppm (Echinochloa crus-galli [3]) | inhibition of growth at 100 ppm (Digitaria sanguinalis [4]) | inhibition of growth at 50 ppm (Amaranthus retroflexus [5]) | inhibition of growth at 100 ppm (Echinochloa crus-galli [6]) | inhibition of growth at 100 ppm (Chenopodium ficifolium [7]) | inhibition of growth at 100 ppm (Amaranthus retroflexus [8]) | inhibition of growth at 50 ppm (Sorghum bicolor [9]) | inhibition of growth at 50 ppm (Chenopodium ficifolium [10]) | inhibition of growth at 50 ppm (Echinochloa crus-galli [11]) | inhibition of growth at 50 ppm (Amaranthus retroflexus [12]) | inhibition of growth at 50 ppm (Digitaria sanguinalis [13]) | inhibition of growth at 50 ppm (Sorghum bicolor [14]) | inhibition of growth at 100 ppm (Chenopodium ficifolium [15]) | inhibition of growth at 50 ppm (Chenopodium ficifolium [16]) | inhibition of growth at 100 ppm (Amaranthus retroflexus [17]) | inhibition of growth at 100 ppm (Sorghum bicolor [18]) | inhibition of growth at 100 ppm (Digitaria sanguinalis [19]) | inhibition of growth at 100 ppm (Sorghum bicolor [20])
1 | Cc1cc(C)n2s/c(=N\C(=O)[C@H](c3ccc(Cl)cc3)C(C)C)nc2n1 | 45% | 50% | 80% | 80% | 50% | 30% | 85% | 95% | 20% | 50% | 30% | 50% | 55% | 20% | 80% | 50% | 100% | 20% | 90% | 25%
2 | COc1cc(OC)n2s/c(=N\C(=O)[C@H](c3ccc(Cl)cc3)C(C)C)nc2n1 | 40% | 40% | 70% | 80% | 40% | 20% | 90% | 80% | 20% | 90% | 20% | 45% | 50% | 25% | 90% | 90% | 95% | 50% | 90% | 40%
3 | CC(C)[C@H](C(=O)/N=c1/nc2nc(Cl)cc(Cl)n2s1)c1ccc(Cl)cc1 | 0% | 40% | 75% | 0% | 45% | 50% | 60% | 75% | 20% | 30% | 30% | 50% | 0% | 20% | 40% | 20% | 80% | 20% | 10% | 30%
4 | COc1cc(Cl)n2s/c(=N\C(=O)[C@H](c3ccc(Cl)cc3)C(C)C)nc2n1 | 0% | 60% | 70% | 10% | 0% | 100% | 10% | 20% | 60% | 10% | 80% | 0% | 0% | 60% | 20% | 10% | 30% | 80% | 10% | 80%
5 | Cc1cc(O)n2s/c(=N\C(=O)[C@H](c3ccc(Cl)cc3)C(C)C)nc2n1 | 20% | 30% | 40% | 25% | 50% | 80% | 80% | 95% | 30% | 50% | 70% | 60% | 10% | 35% | 100% | 70% | 90% | 30% | 10% | 40%
6 | Cc1cc(Cl)n2s/c(=N\C(=O)[C@H](c3ccc(Cl)cc3)C(C)C)nc2n1 | 30% | 10% | 30% | 40% | 85% | 90% | 90% | 100% | 20% | 80% | 70% | 90% | 30% | 10% | 85% | 80% | 100% | 40% | 30% | 20%
7 | Cc1cc(C)n2s/c(=N\C(=O)C(c3ccc(Cl)cc3)C(C)C)nc2n1 (racemic) | 30% | 20% | 25% | 70% | 20% | 10% | 60% | 20% | 0% | 35% | 0% | 10% | 40% | 0% | 70% | 40% | 50% | 0% | 60% | 10%
8 | COc1cc(OC)n2s/c(=N\C(=O)C(c3ccc(Cl)cc3)C(C)C)nc2n1 (racemic) | 30% | 30% | 30% | 60% | 20% | 0% | 50% | 30% | 0% | 20% | 0% | 30% | 35% | 10% | 50% | 20% | 45% | 0% | 60% | 20%
